Results as given in paper PMC7280082 (Acta Pharmaceutica Sinica. B, 2019).

Assays:
[1] = system: HIV-1 E138K mutant strain; experiment: microbe, parasite or virus in culture; type: cell-based; details: for SI E138K: CC50/EC50; for EC50: Human immunodeficiency virus 1, MT4, read-out: EC50 E138K; for RF E138K: ratio of EC50 (resistant viral strain)/EC50 (wild-type viral strain)
[2] = system: HIV-1 Y181C mutant strain; experiment: microbe, parasite or virus in culture; type: cell-based; details: for SI Y181C: CC50/EC50; for EC50: Human immunodeficiency virus 1, MT4, read-out: EC50 Y181C; for RF Y181C: ratio of EC50 (resistant viral strain)/EC50 (wild-type viral strain)
WT HIV-1 RT = WT HIV-1 RT (Human immunodeficiency virus type 1 group M subtype B, UniProt P03366); experiment: Recombinant HIV-1 RT inhibitory assay; type: biochemical
WT HIV-1 (IIIB) = experiment: microbe, parasite or virus in culture; type: cell-based; details: for EC50: Human immunodeficiency virus 1, IIIB, MT4, read-out: EC50 IIIB; for SI IIIB: ratio of CC50/EC50
[3] = system: HIV-1 K103N mutant strain; experiment: microbe, parasite or virus in culture; type: cell-based; details: for SI K103N: CC50/EC50; for EC50: Human immunodeficiency virus 1, MT4, read-out: EC50 K103N; for RF K103N: ratio of EC50 (resistant viral strain)/EC50 (wild-type viral strain)
[4] = system: HIV-1 L100I mutant strain; experiment: microbe, parasite or virus in culture; type: cell-based; details: for SI L100I: CC50/EC50; for EC50: Human immunodeficiency virus 1, MT4, read-out: EC50 L100I; for RF L100I: ratio of EC50 (resistant viral strain)/EC50 (wild-type viral strain)
[5] = system: HIV-1 F227L + V106A double-mutant strain; experiment: microbe, parasite or virus in culture; type: cell-based; details: for SI F227L + V106A: CC50/EC50; for EC50: Human immunodeficiency virus 1, MT4, read-out: EC50 F227L + V106A; for RF F227L + V106A: ratio of EC50 (resistant viral strain)/EC50 (wild-type viral strain)
HIV-2 strain (ROD) = experiment: Anti-HIV-2; type: cell-based; details: for EC50: Human immunodeficiency virus 2, MT4, read-out: EC50 ROD; for SI ROD: ratio of CC50/EC50
[6] = Cytotoxicity in mock-infected MT-4 cell cultures, MTT method; details: human, mock-infected MT-4 cells
[7] = system: HIV-1 Y188L mutant strain; experiment: microbe, parasite or virus in culture; type: cell-based; details: for SI Y188L: CC50/EC50; for EC50: Human immunodeficiency virus 1, MT4, read-out: EC50 Y188L; for RF Y188L: ratio of EC50 (resistant viral strain)/EC50 (wild-type viral strain)
[8] = system: HIV-1 RES056 (K103N + Y181C) double-mutant strain; experiment: microbe, parasite or virus in culture; type: cell-based; details: for SI RES056: CC50/EC50; for EC50: Human immunodeficiency virus 1, MT4, read-out: EC50 RES056; for RF RES056: ratio of EC50 (resistant viral strain)/EC50 (wild-type viral strain)

| Compound | SI E138K [1] | EC50 [1] [nM] | RF E138K [1] | SI Y181C [2] | EC50 [2] [nM] | RF Y181C [2] | IC50 (WT HIV-1 RT) [nM] | EC50 (WT HIV-1 (IIIB)) [nM] | SI IIIB (WT HIV-1 (IIIB)) | SI K103N [3] | EC50 [3] [nM] | RF K103N [3] | SI L100I [4] | EC50 [4] [nM] | RF L100I [4] | SI F227L + V106A [5] | EC50 [5] [nM] | RF F227L + V106A [5] | EC50 (HIV-2 strain (ROD)) [nM] | SI ROD (HIV-2 strain (ROD)) | also measured |
| --- | --- | --- | --- | --- | --- | --- | --- | --- | --- | --- | --- | --- | --- | --- | --- | --- | --- | --- | --- | --- | --- |
| COc1ccc(-c2cc(C)c(Oc3nc(NC4CCN(Cc5ccc(S(N)(=O)=O)cc5)CC4)nc4ccsc34)c(C)c2)cc1 [Compound 21, 4-((4-((4-((4′-Methoxy-3,5-dimethyl-[1,1′-biphenyl]-4-yl)oxy)thieno[3,2-d]pyrimidin-2-yl)amino)piperidin-1-yl)methyl)benzenesulfonamide] | 145 | 114 ± 9.2 | 1.9 | 105 | 157 ± 5.61 | 2.6 | 268 ± 52 | 61.1 ± 10.3 | 272 | 289 | 57.6 ± 0.67 | 0.9 | 98 | 169 ± 2.91 | 2.8 | 136 | 122 ± 59.9 | 2.0 | > 16600 | <1 | CC50 at 5 days [6]: 16600 ± 4650 nM; SI Y188L [7]: 114; EC50 [7]: 146 ± 44.7 nM; RF Y188L [7]: 2.4; SI RES056 [8]: 11; EC50 [8]: 1560 ± 1280 nM; RF RES056 [8]: 25.6 |
| COc1ccc(-c2cc(C)c(Oc3nc(NC4CCN(Cc5ccc(C(N)=O)cc5)CC4)nc4ccsc34)c(C)c2)cc1 [Compound 22, 4-((4-((4-((4′-Methoxy-3,5-dimethyl-[1,1′-biphenyl]-4-yl)oxy)thieno[3,2-d]pyrimidin-2-yl)amino)piperidin-1-yl)methyl)benzamide] | 90 | 149 ± 42 | 2.8 | 85 | 158 ± 27.3 | 3.0 | 233 ± 28 | 52.6 ± 11.4 | 256 | 230 | 58.4 ± 7.14 | 1.1 | 50 | 268 ± 103 | 5.1 | 45 | 297 ± 39.8 | 5.7 | 5040 ± 685 | 3 | CC50 at 5 days [6]: 13400 ± 5940 nM; SI Y188L [7]: 122; EC50 [7]: 110 ± 3.57 nM; RF Y188L [7]: 2.1; SI RES056 [8]: 12; EC50 [8]: 1120 ± 353 nM; RF RES056 [8]: 21.4 |
| Cc1cc(-c2ccc(F)cc2)cc(C)c1Oc1nc(NC2CCN(Cc3ccc(S(N)(=O)=O)cc3)CC2)nc2ccsc12 [Compound 23, 4-((4-((4-((4′-Fluoro-3,5-dimethyl-[1,1′-biphenyl]-4-yl)oxy)thieno[3,2-d]pyrimidin-2-yl)amino)piperidin-1-yl)methyl)benzenesulfonamide] | 547 | 30.9 ± 5.26 | 2.7 | 377 | 44.8 ± 5.26 | 4.0 | 211 ± 15 | 11.3 ± 2.07 | 1492 | 1441 | 11.7 ± 1.03 | 1.0 | 372 | 45.4 ± 5.26 | 4.0 | 363 | 46.6 ± 15.5 | 4.1 | 3280 ± 1260 | 5 | CC50 at 5 days [6]: 16900 ± 4770 nM; SI Y188L [7]: 326; EC50 [7]: 51.8 ± 8.47 nM; RF Y188L [7]: 4.6; SI RES056 [8]: 43; EC50 [8]: 388 ± 76.2 nM; RF RES056 [8]: 34.3 |
| Cc1cc(-c2ccc(F)cc2)cc(C)c1Oc1nc(NC2CCN(Cc3ccc(C(N)=O)cc3)CC2)nc2ccsc12 [Compound 24, 4-((4-((4-((4′-Fluoro-3,5-dimethyl-[1,1′-biphenyl]-4-yl)oxy)thieno[3,2-d]pyrimidin-2-yl)amino)piperidin-1-yl)methyl)benzamide] | 195 | 34.8 ± 10.6 | 2.7 | 189 | 36.1 ± 1.21 | 2.8 | 171 ± 10 | 12.8 ± 2.73 | 532 | 578 | 11.7 ± 1.09 | 0.9 | 111 | 61.1 ± 9.35 | 4.8 | 120 | 56.6 ± 13.7 | 4.4 | ≥ 5660 | <1 | CC50 at 5 days [6]: 6800 ± 3130 nM; SI Y188L [7]: 132; EC50 [7]: 51.4 ± 9.6 nM; RF Y188L [7]: 4.0; SI RES056 [8]: 12; EC50 [8]: 575 ± 120 nM; RF RES056 [8]: 44.9 |
| Cc1cc(-c2ccc(C#N)cc2)cc(C)c1Oc1nc(NC2CCN(Cc3ccc(S(N)(=O)=O)cc3)CC2)nc2ccsc12 [Compound 25, 4-((4-((4-((4′-Cyano-3,5-dimethyl-[1,1′-biphenyl]-4-yl)oxy)thieno[3,2-d]pyrimidin-2-yl)amino)piperidin-1-yl)methyl)benzenesulfonamide] | 120 | 44.4 ± 3.62 | 2.6 | 173 | 30.8 ± 0.11 | 1.8 | 288 ± 26 | 17 ± 5.78 | 312 | 403 | 13.2 ± 0.33 | 0.8 | 194 | 27.4 ± 4.41 | 1.6 | 89 | 59.9 ± 10.2 | 3.5 | 5560 ± 42.3 | 1 | CC50 at 5 days [6]: 5310 ± 2560 nM; SI Y188L [7]: 99; EC50 [7]: 53.6 ± 3.5 nM; RF Y188L [7]: 3.2; SI RES056 [8]: 51; EC50 [8]: 103 ± 3.39 nM; RF RES056 [8]: 6.1 |
| Cc1cc(-c2cccc(C#N)c2)cc(C)c1Oc1nc(NC2CCN(Cc3ccc(S(N)(=O)=O)cc3)CC2)nc2ccsc12 [Compound 27, 4-((4-((4-((3′-Cyano-3,5-dimethyl-[1,1′-biphenyl]-4-yl)oxy)thieno[3,2-d]pyrimidin-2-yl)amino)piperidin-1-yl)methyl)benzenesulfonamide] | 402 | 34.8 ± 9.28 | 2.6 | 432 | 32.4 ± 4.07 | 2.4 | 207 ± 6 | 13.3 ± 2.6 | 1054 | 1639 | 8.56 ± 1.69 | 0.6 | 569 | 24.6 ± 4.97 | 1.9 | 285 | 49.2 ± 8.26 | 3.7 | 4920 ± 2250 | 3 | CC50 at 5 days [6]: 14000 ± 8280 nM; SI Y188L [7]: 256; EC50 [7]: 54.7 ± 2.26 nM; RF Y188L [7]: 4.1; SI RES056 [8]: 40; EC50 [8]: 347 ± 75.9 nM; RF RES056 [8]: 26.1 |
| Cc1cc(-c2cccc(C#N)c2)cc(C)c1Oc1nc(NC2CCN(Cc3ccc(C(N)=O)cc3)CC2)nc2ccsc12 [Compound 28, 4-((4-((4-((3′-Cyano-3,5-dimethyl-[1,1′-biphenyl]-4-yl)oxy)thieno[3,2-d]pyrimidin-2-yl)amino)piperidin-1-yl)methyl)benzamide] | 99 | 41.9 ± 4.56 | 1.8 | 81 | 51.6 ± 4.32 | 2.2 | 202 ± 20 | 23.4 ± 16.9 | 178 | 208 | 20 ± 1.2 | 0.9 | 83 | 50.2 ± 10.3 | 2.1 | 26 | 157 ± 6.6 | 6.7 | > 4170 | <1 | CC50 at 5 days [6]: 4160 ± 1750 nM; SI Y188L [7]: 57; EC50 [7]: 73.4 ± 5.16 nM; RF Y188L [7]: 3.1; SI RES056 [8]: 10; EC50 [8]: 402 ± 41.9 nM; RF RES056 [8]: 17.2 |
| Cc1cc(-c2ccc(N(C)C)cc2)cc(C)c1Oc1nc(NC2CCN(Cc3ccc(S(N)(=O)=O)cc3)CC2)nc2ccsc12 [Compound 29, 4-((4-((4-((4'-(Dimethylamino)-3,5-dimethyl-[1,1′-biphenyl]-4-yl)oxy)thieno[3,2-d]pyrimidin-2-yl)amino)piperidin-1-yl)methyl)benzenesulfonamide] | 100 | 183 ± 19.4 | 2.3 | 71 | 260 ± 30.2 | 3.3 | 477 ± 9 | 79.2 ± 48.7 | 232 | 189 | 97.2 ± 3.07 | 1.2 | 74 | 247 ± 4.5 | 3.1 | 131 | 140 ± 1.31 | 1.8 | > 18400 | <1 | CC50 at 5 days [6]: 18300 ± 4500 nM; SI Y188L [7]: 68; EC50 [7]: 269 ± 30 nM; RF Y188L [7]: 3.4; SI RES056 [8]: 11; EC50 [8]: 1680 ± 388 nM; RF RES056 [8]: 21.2 |
